The assay concerns Campylobacter rectus. Put plainly: Antimicrobial efficacy of HOCl skin cleanser (Table 1). In kind it is cell-based. Conditions: 0.01% HOCl; 30 seconds.

Structures are written as SMILES.

On to `OCl` [HOCl, hypochlorous acid], for which the “% Reduction” value worked out at 99.99% and the “Log Reduction” value is reported as over 5.96 Log10.

The values are drawn from patent US20190125790A1, “USE OF HYPOCHLOROUS ACID AS A TOPICAL ANTIMICROBIAL” (BIIOSMART TECHNOLOGIES LLC, priority 2016, published 2019).
